In patent US20240316038A1, “APOL1 INHIBITORS AND METHODS OF USE” (Maze Therapeutics, Inc., priority 2021, published 2024):

Experiments:
APOL1 G2 [1] = biological target: T1, APOL1 G2 (Homo sapiens, UniProt O14791, DEL388-389); assay: Rescue of HEK293 cell death caused by overexpression of APOL1 (CellTiter-Glo luminescence), HEK293/T-REx APOL1 G2/clone #2; type: cell-based; conditions: reversal of cell death caused by overexpression of APOL1; geometric mean of at least 2 assay runs, † = single assay run (technical duplicate)
T1 construct: expressed in transfected cells; host or cells: HEK293 T-REx clonal lines: HEK T-REx/GCaMP6f/APOL1 G2 K6.3 in A1, HEK293/T-REx APOL1 G2/clone #2 in A2
T1 sequence (O14791 with tags, fused parts or gaps DEL388-389): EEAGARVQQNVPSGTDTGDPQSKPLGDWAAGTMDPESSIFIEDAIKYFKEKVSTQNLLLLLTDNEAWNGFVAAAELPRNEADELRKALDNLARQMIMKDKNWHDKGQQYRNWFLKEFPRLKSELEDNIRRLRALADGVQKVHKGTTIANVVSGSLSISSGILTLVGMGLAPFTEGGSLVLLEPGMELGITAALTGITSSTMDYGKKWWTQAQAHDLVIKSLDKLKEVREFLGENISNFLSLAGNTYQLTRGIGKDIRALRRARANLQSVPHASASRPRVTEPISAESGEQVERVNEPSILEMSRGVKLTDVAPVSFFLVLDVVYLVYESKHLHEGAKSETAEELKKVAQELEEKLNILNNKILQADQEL
Experimental: A HEK293 clonal cell line overexpressing APOL1 G2 (HEK293/T-REx APOL1 G2/clone #2) was maintained in 1×DMEM-GlutaMax (Gibco, 10569-010) media with 10% tetracycline-free FBS (Takara Bio USA, 631101), 5 μg/mL Blasticidin (Gibco, A1113903), and 100 μg/mL Zeocin (Invitrogen, R25001) in T75 flasks. In preparation for the assay, this media was aspirated and 2 mL of prewarmed TrypLE Express (Gibco, 12605-010) was added to a flask to detach cells. The flask was then incubated (humidified, 37° C. with 5% CO2) for 3-5 minutes. Afterwards, 8 mL of prewarmed cell assay media (lx DMEM-GlutaMax media with 10% tetracycline-free FBS) was added to the trypsinized cells. The suspension was gently mixed, and cells were counted using a Countess Cell Counting Chamber (Invitrogen). The suspension was diluted using cell assay media to generate a working stock solution (166,667 cells/mL). Using a MultiDrop Combi (Thermo Electron Corp), 30 μL (final cell density=5,000 cells/well) of the working stock solution was dispensed into each well of white 384-well assay ready plates (Nunc™, 164610) containing 6 ng/mL doxycycline, to induce APOL1 expression, and compound. All compounds were plated in a duplicate 8-point dilution series that consisted of 3-fold stepwise dilutions (0.5% DMSO final). Assay plates were incubated (humidified, 37° C. with 5% CO2) for 17 hours. After the incubation, the plates were equilibrated at room temperature for 1 hour. Next, 15 μl of CellTiter-Glo® reagent (Promega, G7570) was added to each well using a MultiDrop Combi. Plates were placed on an orbital shaker (500 rpm) for 5 minutes to induce cell lysis and then incubated at room temperature for 10 minutes. Luminescence was measured on an Envision plate reader. Collaborative Drug Discovery software was utilized for graphing data. Plots were generated using a four parameter logistic curve fit.
Table B2 below provides the results from this experiment. Unless otherwise specified, EC50 values are reported as the geometric mean of at least 2 assay runs on separate days. Each run represents the average of a technical replicate, where each compound was assayed twice in the same plate. A superscript t symbol indicates a value from the average of a technical replicate from a single assay run, where each compound was assayed twice in the same plate. Compounds in Table B2 are referred to by the corresponding Compound Number in Table 1, which is also referred to in the synthetic examples. When one or more of the numbered compounds are identified by stereochemistry (for example, (R)- or (S)—), the specific stereoisomer for which data is provided in Table B2 may be identified by the elution order of such compound as described in the synthetic examples. To illustrate, Compound 2 is the first-eluting enantiomer of step 4 of Example 1 and Compound 3 is the second-eluting enantiomer of step 4 of Example 1. Further, by way of illustration, Compound 27 is the first-eluting enantiomeric mixture in step 4 of Example 7 and Compound 28 is the second-eluting enantiomeric mixture in step 4 of Example 7. Then, Compound 27 is separated into Compound 29 (the first-eluting enantiomer) and Compound 30 (the second-eluting enantiomer) in Example 8, and Compound 28 is separated into Compound 31 (the first-eluting enantiomer) and Compound 32 (the second-eluting enantiomer) in Example 8. Absolute stereochemistry of such compounds may be identified by methods known in the art.
Rescue EC50 values reported in Table B2 below represent the half-maximal effective concentration for reversal of cell death caused by overexpression of APOL1.

APOL1 G2 [2] = biological target: T1, APOL1 G2; assay: APOL1 calcium transport inhibition assay (GCaMP6f calcium influx, FLIPR) in HEK T-REx/GCaMP6f/APOL1 G2 K6.3 cells; type: cell-based; conditions: inhibition of APOL1-mediated calcium influx; geometric mean of at least 2 assay runs, † = single assay run (technical duplicate)
Experimental: A HEK293 clonal cell line was generated to stably express GCaMP6f, a genetically encoded calcium indicator, and inducibly express APOL1 G2 (HEK T-REx/GCaMP6f/APOL1 G2 K6.3). Cells were maintained in the following standard complete medium: DMEM with 4.5 g/L glucose and sodium pyruvate (BioWhittaker, Lonza, BE12-614F), supplemented with 10% FBS Performance Plus (Gibco, 16000044), 1% penicillin-streptomycin (BioWhittaker, DE17-602E), 2 mM ultraglutamine-1 (BioWhittaker cat. BE 17-605/U1), 50 μg/mL Zeocin (InvivoGen, ant-zn), 2.5 μg/mL Blasticidin (InvivoGen, ant-bl-5), and 25 μg/mL Hygromycin (InvivoGen, ant-hg). Standard propagation conditions consisted of plating 9×10^6, 4×10^6, 2×10^6 cells in a T225 flasks to be processed after 2, 3, or 4 days, respectively.
A source plate was generated containing 20 serially diluted compounds in DMSO (duplicate 8-point dose response). Next, 0.8 μL of compounds were transferred from the source plate to a destination plate prefilled with 79.2 μL of Ca^2+ free Tyrode's buffer (130 mM NaCl, 5 mM KCl, 1 mM MgCl2, 5 mM NaHCO3, 20 mM HEPES at pH 7.4). The destination plate was placed on a plate shaker (5 seconds at 2000 rpm) to mix. […] All transfer and mixing steps were conducted with an CyBi®-Well dispenser.
Cells were split by gently washing with DPBS (Euroclone, ECB4004L), followed by a 5-minute incubation (humidified, 37° C. with 5% CO2) with trypsin-EDTA solution (Euroclone, ECB3052D). Detached cells were diluted with standard complete medium without selective agents, counted, and plated in a 384 MTP microplate (GR4332CPL, Twin Helix) (10,000 cells/well in 25 μl/well) using a MATRIX WellMate dispenser. Plates were placed into a humidified incubator (37° C. with 5% CO2) overnight. The following day, 20 μL of doxycycline (Sigma, D9891) at 20 ng/mL in standard complete medium was added to cells with a CyBi @Drop dispenser to induce APOL1 G2 expression. After a 6-hour incubation (humidified, 37° C. with 5% CO2), cells were washed 3 times with Ca^2+ free Tyrode's Buffer (130 mM NaCl, 5 mM KCl, 1 mM MgCl2, 5 mM NaHCO3, 20 mM HEPES at pH 7.4) using a BIOTEK Microplate washer, such that 10 μL of buffer remained in each well after the final wash. Assay plates were then stored at room temperature for 10 minutes. Next, 10 μL of diluted compounds were transferred to the assay plate from the 2× compound plate using a CyBi®-Well dispenser. Compound incubation was then carried out at room temperature for 10 minutes. The assay plate was transferred to the […] and 20 μL of 10 mM Ca^2+ (final concentration=5 mM) Tyrode's buffer was injected.
Table B1 below summarizes the data from this experiment. Unless otherwise specified, AC50 and values are reported as the geometric mean of at least 2 assay runs on separate days. Each run represents the average of a technical replicate, where each compound was assayed twice in the same plate. A superscript † symbol indicates a value from the average of a technical replicate from a single assay run, where each compound was assayed twice in the same plate.
The AC50 values in Table B1 below reflect the compound's ability to prevent calcium influx by inhibiting APOL1. […] Compounds in Table B1 are referred to by the corresponding Compound Number in Table 1, which is also referred to in the synthetic examples. When one or more of the numbered compounds are identified by stereochemistry (for example, (R)- or (S)—), the specific stereoisomer for which data is provided in Table B1 may be identified by the elution order of such compound as described in the synthetic examples. To illustrate, Compound 2 is the first-eluting enantiomer of step 4 of Example 1 and Compound 3 is the second-eluting enantiomer of step 4 of Example 1. Further, by way of illustration, Compound 27 is the first-eluting enantiomeric mixture in step 4 of Example 7 and Compound 28 is the second-eluting enantiomeric mixture in step 4 of Example 7. […]

Row | SMILES | EC50 (APOL1 G2 [1]) [nM] | AC50 (APOL1 G2 [2]) [nM]
1 | CS(=O)(=O)c1ccc(OCC2CN(CCc3cccc(Cl)c3)CCC2O)cc1 (racemic) [Compound 27, rac-trans or cis-1-(3-chlorophenethyl)-3-((4-(methylsulfonyl)phenoxy)methyl)piperidin-4-ol] | 2130 | 1500
2 | CS(=O)(=O)c1ccc(OCC2CN(CCc3cccc(Cl)c3)CCC2O)cc1 (racemic) [Compound 28, rac-cis or trans-1-(3-chlorophenethyl)-3-((4-(methylsulfonyl)phenoxy)methyl)piperidin-4-ol] | 2340 | 2000
3 | C[C@H]1CN(CCc2cccc(Cl)c2)C[C@@H]1COc1ccc(N(C)S(C)(=O)=O)cc1 (racemic) [Compound 45, rac-trans-N-(4-((1-(3-chlorophenethyl)-4-methylpyrrolidin-3-yl)methoxy)phenyl)-N-methylmethanesulfonamide] | < 13.7 | 71.2
4 | C[C@@H]1CN(CCc2cccc(Cl)c2)C[C@H]1COc1ccc(S(C)(=O)=O)cc1 (racemic) [Compound 52, rac-trans-1-(3-chlorophenethyl)-3-methyl-4-((4-(methylsulfonyl)phenoxy)methyl)pyrrolidine] | 124 | 79
5 | COCCS(=O)(=O)c1ccc(OC[C@H]2CN(CCc3cccc(Cl)c3)C[C@@H]2C)cc1 (racemic) [Compound 109, rac-trans-1-[2-(3-chlorophenyl)ethyl]-3-{[4-(2-methoxyethane-sulfonyl)phenoxy]methyl}-4-methylpyrrolidine] | 500 | < 105
6 | C[C@@H]1CN(CCc2cccc(Cl)c2)C[C@@H]1COc1ccc(S(C)(=O)=O)cc1 (racemic) [Compound 150, rac-cis-1-[2-(3-chlorophenyl)-ethyl]-3-[(4-methanesulfon-ylphenoxy)meth-yl]-4-methyl-pyrrolidine] | 1470 | 721
7 | C[C@H]1CN(CCc2cccc(Cl)c2)C[C@@H]1COc1ccc(S(=O)(=O)CCCS(C)(=O)=O)cc1 (racemic) [Compound 175, rac-trans-1-[2-(3-chlorophenyl)eth-yl]-3-{[4-(3-methanesulfonylpro-panesulfonyl)phe-noxy]methyl}-4-methylpyrrolidine] | 143 | < 72.8
8 | C[C@@]1(O)CN(CCc2cccc(Cl)c2)C[C@H]1COc1ccc(S(C)(=O)=O)cc1 (racemic) [Compound 205] | 1590 | < 236
9 | CC1(O)CN(CCc2cccc(Cl)c2)CC1COc1ccc(S(C)(=O)=O)cc1 (racemic) [Compound 208, rac-trans-1-[2-(3-chlorophenyl)ethyl]-4-[(4-methanesulfonylphenoxy)methyl]-3-methylpyrrolidin-3-ol] | 3570 | < 420
10 | CS(=O)(=O)c1ccc(OCC2CCCCN(CCc3cccc(Cl)c3)C2)cc1 (single isomer, unassigned) [Compound 2, (R) or (S)-1-(3-chlorophenethyl)-3-((4-(methylsulfonyl)phenoxy)methyl)azepane] | 2960 | 1010
11 | CS(=O)(=O)c1ccc(OCC2CCCCN(CCc3cccc(Cl)c3)C2)cc1 (single isomer, unassigned) [Compound 3, (S) or (R)-1-(3-chlorophenethyl)-3-((4-(methylsulfonyl)phenoxy)methyl)azepane] | 295 | 205
12 | CS(=O)(=O)c1ccc(OCC2(O)CCCN(CCc3cccc(Cl)c3)C2)cc1 (single isomer, unassigned) [Compound 5, (R) or (S)-1-(3-chlorophenethyl)-3-((4-(methylsulfonyl)phenoxy)methyl) piperidin-3-ol] | 5370 | 10100
13 | CS(=O)(=O)c1ccc(OCC2(O)CCCN(CCc3cccc(Cl)c3)C2)cc1 (single isomer, unassigned) [Compound 6, (S) or (R) -1-(3-chlorophenethyl)-3-((4-(methylsulfonyl)phenoxy)methyl) piperidin-3-ol] | 495 | 942
